According to patent US7273848B2, “Apolipoprotein A-I agonists and their use to treat dyslipidemic disorders” (priority 1997, dated 2007):
Non-standard residues stand in square brackets, D forms with d. Residues, ends and D or L forms follow the SMILES beside them. Aib = CC(C)(N)C(=O)O

How the values were obtained:
[1] = target: T1, LCAT (purified from human plasma) (Homo sapiens, UniProt P04180); assay: LCAT activation assay; assay type: biochemical; settings: LCAT activation as compared with native human ApoA-I (= 100%), equivalent masses
T1 construct: from tissue; host or cells: human plasma
T1 sequence (P04180 25-440): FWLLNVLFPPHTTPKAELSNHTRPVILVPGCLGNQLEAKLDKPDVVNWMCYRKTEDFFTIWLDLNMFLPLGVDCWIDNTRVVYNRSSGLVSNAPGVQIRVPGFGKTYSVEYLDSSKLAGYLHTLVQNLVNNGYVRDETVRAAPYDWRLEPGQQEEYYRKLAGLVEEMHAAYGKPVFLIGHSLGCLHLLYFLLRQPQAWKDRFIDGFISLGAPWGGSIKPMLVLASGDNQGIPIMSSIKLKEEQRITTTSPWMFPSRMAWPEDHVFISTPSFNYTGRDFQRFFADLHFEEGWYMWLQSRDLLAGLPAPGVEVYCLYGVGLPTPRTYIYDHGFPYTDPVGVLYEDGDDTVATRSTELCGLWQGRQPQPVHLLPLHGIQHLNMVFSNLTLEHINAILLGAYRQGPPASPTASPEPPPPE
Procedure: The peptides synthesized as described in Section 6, supra, were analyzed in vitro for their ability to activate LCAT. In the LCAT assay, substrate vesicles (small unilamellar vesicles or “SUVs”) composed of egg phophatidylcholine (EPC) or 1-Palmitoyl-2-oleyl-phosphatidyl-choline (POPC) and radiolabelled cholesterol are preincubated with equivalent masses either of peptide or ApoA-I (isolated from human plasma). The reaction is initiated by addition of LCAT (purified from human plasma). Native ApoA-I, which was used as positive control, represents 100% activation activity. “Specific activity” (i.e., units of activity (LCAT activation)/unit of mass) of the peptides can be calculated as the concentration of peptide that achieves maximum LCAT activation. For example, a series of concentrations of the peptide (e.g., a limiting dilution) can be assayed to determine the “specific activity” for the peptide—the concentration which achieves maximal LCAT activation (i.e., percentage conversion of cholesterol to cholesterol ester) at a specific timepoint in the assay (e.g., 1 hr.). When plotting percentage conversion of cholesterol at, e.g., 1 hr., against the concentration of peptide used, the “specific activity” can be identified as the concentration of peptide that achieves a plateau on the plotted curve.
The vesicles used in the LCAT assay are SUVs composed of egg phosphatidylcholine (EPC) or 1-palmitoyl-2-oleyl-phosphatidylcholine (POPC) and cholesterol with a molar ratio of 20:1. To prepare a vesicle stock solution sufficient for 40 assays, 7.7 mg EPC (or 7.6 mg POPC; 10 μmol), 78 μg (0.2 μmol) 4-^14C-cholesterol, 116 μg cholesterol (0.3 μmol) are dissolved in 5 ml xylene and lyophilized. Thereafter 4 ml of assay buffer is added to the dry powder and sonicated under nitrogen atmosphere at 4° C. Sonication conditions: Branson 250 sonicator, 10 mm tip, 6×5 minutes; Assay buffer: 10 mM Tris, 0.14 M NaCl, 1 mM EDTA, pH 7.4). The sonicated mixture is centrifuged 6 times for 5 minutes each time at 14,000 rpm (16,000×g) to remove titanium particles. The resulting clear solution is used for the enzyme assay.
For the LCAT purification, dextran sulfate/Mg^2+ treatment of human plasma is used to obtain lipoprotein deficient serum (LPDS), which is sequentially chromatographed on Phenylsepharose, Affigelblue, ConcanavalinA sepharose and anti-ApoA-I affinity chromatography, as summarized for a representative purification in TABLE IX, below: […]

[2] = Circular dichroism helicity determination; assay type: physicochemical; settings: percent helicity
Procedure: Far UV circular dichroism spectra were recorded between 190 and 260 nm (in 0.5 nm or 0.2 nm increments) with a AVIV62DS spectrometer (AVIV Associates, Lakewood, N.J., USA) equipped with a thermoelectric cell holder and sample changer. The instrument was calibrated with (+)-10-[…]. Between one and three scans were collected for each sample, using 10 cm, 5 cm, 1 cm and 0.1 cm path length quartz Suprasil cells, respectively, for peptide concentrations of 10^−7 M to 10^−4 M. The bandwidth was fixed at 1.5 nm and the scan speed to 1s per wavelength step. The reported data are the mean of at least 2 or 3 independent measurements.
After background substraction, spectra were converted to molar ellipticity (θ) per residue in deg. […] dmol^−1. The peptide concentration was determined by amino acid analysis and also by absorption spectrometry on a Perkin Elmer Lambda 17 UV/Visible spectrophotometer when the peptide contained a chromophore (tryptophane, dansyl, naphtylalanine).
CD spectra were obtained with free, unbound peptide (5 μM in 5 mM phosphate buffer, pH 7.4); with peptide-SUV complexes (20:1 EPC:Chol., Ri=30 and Ri=50); with peptide-micelle complexes (1-myristoyl-2-hydroxy-sn-glycero-3-phosphatidyl choline, Ri=100); and with free, unbound peptide in the presence of 2,2,2-trifluoroethanol (TFE) (5 μM peptide, 90% vol TFE).
The SUVs were obtained by dispersing the lipids (10 mM, 20:1 EPC:Chol., Avanti Polar Lipids, AL) in phosphate buffer (5 mM, pH 7.4) with bubbling N2 for 5 min., followed by sonication (1.5 hr.) in a bath sonicator. The homogeneity of the preparation was checked by FPLC.
The micelles were obtained by dispersing the lipid (6 mM 1-myristoyl-2-hydroxy-sn-glycero-3-phosphatidyl choline, Avanti Polar Lipids, AL) in phosphate buffer (5 mM, pH 7.4) with bubbling N2 for 5 min., followed by vortexing.
To obtain the peptide-SUV complexes, SUVs were added to the peptide (5 μM in 5 mM phosphate buffer, pH 7.4) at a phospholipid-peptide molar ratio (Ri) of 30 or 50.
To obtain the peptide-micelle complexes, micelles were added to the peptide (5 μM in 5 mM phosphate buffer, pH 7.4) at a Ri of 100.
All spectra were recorded at 37° C.
The degree of helicity of the peptides in the various conditions was determined from the mean residue ellipticity at 222 nm (Chen et al., 1974, Biochemistry 13:3350-3359) or by comparing the CD spectra obtained to reference spectra available on databases (16 helical reference spectra from Provencher & Glockner, 1981, Biochemistry 20:33-37; denatured protein reference spectra from Venyaminov et al., 1993, Anal. Biochem. 214:17-24) using the CONTIN curve-fitting algorithm version 2DP, CD-1 pack (August 1982) (Provencher, 1982, Comput. Phys. Commun. 27:213-227, 229-242). Acceptable fit was determined using the statistical analysis methodology provided by the CONTIN algorithm. The error of all methods was ±5% helicity.

Row | Compound | ACTIVITY (%) LCAT [1] [%] | other results
1 | CC(C)C[C@H](NC(=O)[C@H](C)NC(=O)[C@H](CCC(=O)O)NC(=O)[C@H](CC(C)C)NC(=O)[C@H](CC(C)C)NC(=O)[C@H](CCC(=O)O)NC(=O)[C@H](CC(N)=O)NC(=O)[C@H](CC(C)C)NC(=O)[C@H](CC(C)C)NC(=O)[C@H](CCC(=O)O)NC(=O)[C@H](CCCNC(=N)N)NC(=O)[C@H](Cc1ccccc1)NC(=O)[C@H](CC(C)C)NC(=O)[C@H](CC(=O)O)NC(=O)[C@H](CC(C)C)NC(=O)[C@@H](NC(=O)[C@H]1CCCN1)C(C)C)C(=O)N[C@@H](CCCCN)C(=O)N[C@@H](CCC(N)=O)C(=O)N[C@@H](CCCCN)C(=O)N[C@@H](CC(C)C)C(=O)N[C@@H](CCCCN)C(=O)N[C@@H](CCCCN)C(=O)O [compound 5] | 90 | 
2 | CC(C)C[C@H](NC(=O)CNC(=O)[C@H](CCC(=O)O)NC(=O)[C@H](CC(N)=O)NC(=O)[C@H](CC(C)C)NC(=O)[C@H](CC(C)C)NC(=O)[C@H](CCC(=O)O)NC(=O)[C@H](CCCNC(=N)N)NC(=O)[C@H](Cc1ccccc1)NC(=O)[C@H](CC(C)C)NC(=O)[C@H](CC(=O)O)NC(=O)[C@H](CC(C)C)NC(=O)[C@@H](NC(=O)[C@H]1CCCN1)C(C)C)C(=O)N[C@@H](CCC(=O)O)C(=O)N[C@@H](C)C(=O)N[C@@H](CC(C)C)C(=O)N[C@@H](CCCCN)C(=O)N[C@@H](CCC(N)=O)C(=O)N[C@@H](CCCCN)C(=O)N[C@@H](CC(C)C)C(=O)N[C@@H](CCCCN)C(=O)O [compound 19] (H-[dP]VLDLFRELLNEGLEALKQKLK-OH) | 58 | 
3 | CC(C)C[C@H](NC(=O)[C@H](C)NC(=O)[C@H](CCC(=O)O)NC(=O)[C@H](CC(C)C)NC(=O)C(C)(C)NC(=O)[C@H](CCC(=O)O)NC(=O)[C@H](Cc1c[nH]c2ccccc12)NC(=O)[C@H](CC(C)C)NC(=O)[C@H](CCCCN)NC(=O)[C@H](CCC(=O)O)NC(=O)[C@H](CCCNC(=N)N)NC(=O)[C@H](Cc1ccccc1)NC(=O)[C@H](CCC(=O)O)NC(=O)[C@H](CC(=O)O)NC(=O)[C@H](CC(C)C)NC(=O)[C@@H](NC(=O)[C@@H]1CCCN1)C(C)C)C(=O)N[C@@H](CCCCN)C(=O)N[C@@H](CCC(N)=O)C(=O)N[C@@H](CCCCN)C(=O)N[C@@H](CC(C)C)C(=O)N[C@@H](CCCCN)C(=O)O [compound 43, PVLDEFREKLWEXLEALKQKLK] (H-PVLDEFREKLWE[Aib]LEALKQKLK-OH) | 25 | 
4 | CC(C)C[C@H](NC(=O)[C@H](C)NC(=O)[C@H](CCC(=O)O)NC(=O)[C@H](CC(C)C)NC(=O)[C@H](CC(C)C)NC(=O)[C@H](CCC(=O)O)NC(=O)[C@H](CC(N)=O)NC(=O)[C@H](CC(C)C)NC(=O)[C@H](CC(C)C)NC(=O)[C@H](CCC(=O)O)NC(=O)[C@H](CCCNC(=N)N)NC(=O)[C@H](Cc1ccccc1)NC(=O)[C@H](CC(C)C)NC(=O)[C@H](CC(=O)O)NC(=O)[C@H](CC(C)C)NC(=O)[C@H](NC(=O)[C@H]1CCCN1)C(C)C)C(=O)N[C@@H](CCCCN)C(=O)N[C@@H](CCC(N)=O)C(=O)N[C@@H](CCCCN)C(=O)N[C@@H](CC(C)C)C(=O)N[C@@H](CCCCN)C(=O)O [compound 48] | 22 | 
5 | Ac-PVLDEFREKLNEELEALKQKLK-NH2 [peptide 75, reference compound] |  | He (%) TFE ([2]; 5 μM peptide, 90% vol TFE, 37° C.): 55%; He (%) free ([2]; free, unbound peptide 5 μM in 5 mM phosphate buffer, pH 7.4, 37° C.): 18%; He (%) SUVs ([2]; peptide-SUV complexes (20:1 EPC:Chol., Ri=30 and Ri=50), 37° C.): 23%; He (%) mics ([2]; peptide-micelle complexes, Ri=100, 37° C.): 28%

Now from value to compound, other results behind:

Row | ACTIVITY (%) LCAT [1] [%] | Compound | other results
6 | 57 | CC(C)C[C@H](NC(=O)[C@H](C)NC(=O)[C@H](CCC(=O)O)NC(=O)[C@H](CC(C)C)NC(=O)[C@H](CC(C)C)NC(=O)[C@H](CCC(=O)O)NC(=O)[C@H](CC(N)=O)NC(=O)[C@H](CC(C)C)NC(=O)[C@H](CC(C)C)NC(=O)[C@H](CCC(=O)O)NC(=O)[C@H](CCCNC(=N)N)NC(=O)[C@H](Cc1ccccc1)NC(=O)[C@H](CC(C)C)NC(=O)[C@H](CC(=O)O)NC(=O)[C@H](CC(C)C)NC(=O)[C@@H](NC(=O)[C@H]1CCCN1)C(C)C)C(=O)N[C@@H](CCCCN)C(=O)N[C@@H](CCC(N)=O)C(=O)N[C@@H](CCCCN)C(=O)N[C@@H](CC(C)C)C(=O)N[C@@H](CCCCN)C(=O)O [compound 21] | 
7 | 33 | CC(C)C[C@H](NC(=O)[C@H](C)NC(=O)[C@H](CCC(=O)O)NC(=O)[C@H](CC(C)C)NC(=O)[C@H](CC(C)C)NC(=O)[C@H](CCC(=O)O)NC(=O)[C@H](CC(N)=O)NC(=O)[C@H](CC(C)C)NC(=O)[C@H](CC(C)C)NC(=O)[C@H](CCC(=O)O)NC(=O)[C@H](CCCNC(=N)N)NC(=O)[C@H](Cc1ccccc1)NC(=O)[C@H](CC(C)C)NC(=O)[C@H](CC(=O)O)NC(=O)[C@H](CC(C)C)NC(=O)[C@@H](NC(=O)C(C)(C)N)C(C)C)C(=O)N[C@@H](CCCCN)C(=O)N[C@@H](CCC(N)=O)C(=O)N[C@@H](CCCCN)C(=O)N[C@@H](CC(C)C)C(=O)N[C@@H](CCCCN)C(=O)O [compound 32, XVLDLFRELLNELLEALKQKLK] (H-[Aib]VLDLFRELLNELLEALKQKLK-OH) | 
8 | 20 | CC(C)C[C@H](NC(=O)[C@H](C)NC(=O)[C@H](CCC(=O)O)NC(=O)[C@H](CC(C)C)NC(=O)C(C)(C)NC(=O)[C@H](CCC(=O)O)NC(=O)[C@H](CC(N)=O)NC(=O)[C@H](CC(C)C)NC(=O)[C@H](CCCCN)NC(=O)[C@H](CCC(=O)O)NC(=O)[C@H](CCCNC(=N)N)NC(=O)[C@H](Cc1ccccc1)NC(=O)[C@H](CCC(=O)O)NC(=O)[C@H](CC(=O)O)NC(=O)[C@H](Cc1c[nH]c2ccccc12)NC(=O)[C@@H](NC(=O)[C@@H]1CCCN1)C(C)C)C(=O)N[C@@H](CCCCN)C(=O)N[C@@H](CCC(N)=O)C(=O)N[C@@H](CCCCN)C(=O)N[C@@H](CC(C)C)C(=O)N[C@@H](CCCCN)C(=O)O [compound 52, PVWDEFREKLNEXLEALKQKLK] (H-PVWDEFREKLNE[Aib]LEALKQKLK-OH) | 
